# Assay results taken from patent US20240209004A1, “BORIC ACID DERIVATIVE ACTING AS Beta-LACTAMASE INHIBITOR” (TUOJIE BIOTECH (SHANGHAI) CO., LTD., priority 2021, published 2024).
# Where two headings read alike, the source gives them in different places.
# Experiments:
# Assay type in all cases: cell-based
# [1] = tested on: cefepime-resistant Klebsiella pneumoniae expressing different types of β-lactamases; assay: microbe, parasite or virus in culture; settings: for MIC: Klebsiella pneumoniae; for MIC, Cefepime + compound (8 ug/ml): inhibitor at 8 ug/ml
# Description: (§1) The biosafety cabinet was sterilized with ultraviolet light for 30 min. Glycerol tubes were taken out of a −80° C. freezer, and streaks were gently formed in the glycerol tubes using inoculating loops. Bacteria were inoculated onto MHIIA solid plates. The plates were incubated overnight in a 37° C. incubator.
# (§2) 30 μL of compound stock solution was added to column 1 of a 96-well v-bottom plate, and DMSO was added to columns 2-10. Subsequently, 15 μL was transferred from column 1 to column 2 using a pipette and well mixed gently, and then 15 μL of solution was transferred from column 2 to column 3: the serial dilution process proceeded to column 10 (200×β-lactamase inhibitor working solutions were prepared). The antibiotic was diluted with a corresponding solvent to form a 1.6 mg/mL solution.
# [2] = tested on: cefepime-resistant Pseudomonas aeruginosa; assay: MIC in combination with cefepime for drug-resistant bacteria (Test Example 2); settings: read-out: concentration for achieving a bacteriostatic effect where the CPM MIC is fixed at 8 μg/mL
# Description: as §1
# as §2, with “3;” for “3:”
# [3] = tested on: cefepime-resistant Acinetobacter baumannii; assay: as above; settings: Acinetobacter baumannii, with CPM 8 μg/mL, read-out: concentration for achieving a bacteriostatic effect where the CPM MIC is fixed at 8 μg/mL
# Description: as §1
# as §2, with “3;” for “3:”
# [4] = tested on: cefepime-resistant Escherichia coli; assay: as above; settings: for MIC: Escherichia coli, with CPM 8 μg/mL, read-out: concentration for achieving a bacteriostatic effect where the CPM MIC is fixed at 8 μg/mL
# Description: as §1
# as §2, with “3;” for “3:”
# [5] = tested on: cefepime-resistant Klebsiella pneumoniae; assay: as above; settings: for MIC: Klebsiella pneumoniae, with CPM 8 μg/mL, read-out: concentration for achieving a bacteriostatic effect where the CPM MIC is fixed at 8 μg/mL
# Description: as §1
# as §2, with “3;” for “3:”
# [6] = tested on: Escherichia coli ARLG-2829 (Urine); assay: MIC of β-lactamase inhibitors in the presence of antibiotic (Test Example 1); settings: in the presence of Cefepime (8 ug/mL)
# Description: (§3) • 1) The antibiotics cefepime and biapenem (purchased from MCE Inc.).
# as §1
# as §2, with “two antibiotics were” for “antibiotic was”, “with” for “with a”, “solvents” for “solvent”, “form” for “form a”, “solutions.” for “solution.”
# (§4) 1 μL of 200×B-lactamase inhibitor solution and 1 μL of 1.6 mg/mL antibiotic were added to a new 96-well round-bottom plate. The plate that had been incubated overnight was taken out of the incubator, and several monoclones were picked into normal saline using an inoculating loop. The bacterial solution was adjusted to a concentration of about 1.0×10^8CFU/mL and diluted 200-fold with medium, and 198 μL of the resulting bacterial solution was added to the test plate. The test plate was incubated in a 37° C.incubator for 18-24 h. The 96-well plate that had been incubated for 20 h was taken out of the incubator. The concentration that prevented visible bacterial growth was defined as the minimum inhibitory concentration.
# [7] = tested on: Klebsiella pneumoniae ATCC BAA-1705; assay: as above
# Description: as §3, §1
# as §2, with “two antibiotics were” for “antibiotic was”, “with” for “with a”, “solvents” for “solvent”, “form” for “form a”, “solutions.” for “solution.”
# as §4
# [8] = tested on: Klebsiella pneumoniae ATCC BAA-2472; assay: as above
# Description: as §3, §1
# as §2, with “two antibiotics were” for “antibiotic was”, “with” for “with a”, “solvents” for “solvent”, “form” for “form a”, “solutions.” for “solution.”
# as §4
# [9] = summary in words of Test Example 2
# [10] = in the presence of Biapenem (8 ug/mL)
# [11] = in the presence of Cefepime (8 ug/mL)
smiles,measurement,setting,value
O=C(O)c1c(F)ccc2c1OB(O)[C@@H]1C[C@H]21 [QPX-7728],MIC,"[1]; ATCCBAA1705, read-out: MIC, single substance (1-1-Na, QPX7728, CPM), strain ATCC BAA-1705, KPC-2, TEM, SHV, Class A",32 µg/mL
same,MIC,"[1]; ATCCBAA1898, read-out: MIC, single substance (1-1-Na, QPX7728, CPM), strain ATCC BAA-1898, KPC-2, Class A",32 µg/mL
same,MIC,"[1]; ATCCBAA1899, read-out: MIC, single substance (1-1-Na, QPX7728, CPM), strain ATCC BAA-1899, KPC-2, Class A",32 µg/mL
same,MIC,"[1]; ATCCBAA2343, read-out: MIC, single substance (1-1-Na, QPX7728, CPM), strain ATCC BAA-2343, KPC, Class A",32 µg/mL
same,MIC,"[1]; ATCCBAA2470, read-out: MIC, single substance (1-1-Na, QPX7728, CPM), strain ATCC BAA-2470, NDM-1, Class B",16 µg/mL
same,MIC,"[1]; read-out: MIC, single substance (1-1-Na, QPX7728, CPM), strain ARLG-1127 (Urine), KPC, KPC-3, TEM, TEM-1, Class A",64 µg/mL
same,MIC,"[1]; read-out: MIC, single substance (1-1-Na, QPX7728, CPM), strain ARLG-1195, CTM-1 group, SHV, NDM, Class A, B",32 µg/mL
same,MIC,"[1]; read-out: MIC, single substance (1-1-Na, QPX7728, CPM), strain ARLG-1196, CTM-1 group, SHV, NDM, TEM, Class A, B",32 µg/mL
same,"MIC, Cefepime + compound (8 ug/ml)","[1]; strain ARLG-1127 (Urine), KPC, KPC-3, TEM, TEM-1, Class A",≤0.125 µg/mL
same,"MIC, Cefepime + compound (8 ug/ml)","[1]; strain ARLG-1195, CTM-1 group, SHV, NDM, Class A, B",≤0.125 µg/mL
same,"MIC, Cefepime + compound (8 ug/ml)","[1]; strain ARLG-1196, CTM-1 group, SHV, NDM, TEM, Class A, B",≤0.125 µg/mL
same,"MIC, Cefepime + compound (8 ug/ml)","[1]; strain ATCC BAA-1705, KPC-2, TEM, SHV, Class A",≤0.125 µg/mL
same,"MIC, Cefepime + compound (8 ug/ml)","[1]; strain ATCC BAA-1898, KPC-2, Class A",<0.125 µg/mL
same,"MIC, Cefepime + compound (8 ug/ml)","[1]; strain ATCC BAA-1899, KPC-2, Class A",<0.125 µg/mL
same,"MIC, Cefepime + compound (8 ug/ml)","[1]; strain ATCC BAA-2343, KPC, Class A",≤0.125 µg/mL
same,"MIC, Cefepime + compound (8 ug/ml)","[1]; strain ATCC BAA-2470, NDM-1, Class B",≤0.125 µg/mL
same,restore to cefepime antibacterial activity against cefepime-resistant Klebsiella pneumoniae,[1]; summary in words of Test Example 3 (sentence runs over b277-b278),significantly
same,MIC,"[2]; strain FDA-CDC AR-BANK#0246, with CPM 8 μg/mL",> 16 µg/mL
same,MIC,"[2]; strain FDA-CDC AR-BANK#0439, with CPM 8 μg/mL",> 16 µg/mL
same,MIC,"[2]; strain FDA-CDC AR-BANK#0441, with CPM 8 μg/mL",2 µg/mL
same,MIC,"[2]; strain FDA-CDC AR-BANK#0444, with CPM 8 μg/mL",4 µg/mL
same,MIC,[3]; strain FDA-CDC AR-BANK#0033,> 16 µg/mL
same,MIC,[3]; strain FDA-CDC AR-BANK#0035,> 16 µg/mL
same,MIC,[3]; strain FDA-CDC AR-BANK#0078,16 µg/mL
same,MIC,[4]; strain FDA-CDC AR-BANK#0055,0.5 µg/mL
same,MIC,[4]; strain FDA-CDC AR-BANK#0114,≤ 0.0156 µg/mL
same,MIC,[4]; strain FDA-CDC AR-BANK#0370,0.125 µg/mL
same,MIC,[4]; strain FDA-CDC AR-BANK#0371,≤ 0.0156 µg/mL
same,restoring to cefepime antibacterial activity against cefepime-resistant Escherichia coli,[4]; [9],significantly restore to cefepime antibacterial activity
same,MIC,[5]; strain FDA-CDC AR-BANK#0003,0.0312 µg/mL
same,MIC,[5]; strain FDA-CDC AR-BANK#0076,0.25 µg/mL
same,MIC,[5]; strain FDA-CDC AR-BANK#0080,0.5 µg/mL
same,MIC,[5]; strain FDA-CDC AR-BANK#0126,≤ 0.0156 µg/mL
same,MIC,[5]; strain FDA-CDC AR-BANK#0158,0.5 µg/mL
same,restoring to cefepime antibacterial activity against cefepime-resistant Klebsiella pneumoniae,[5]; [9],significantly restore to cefepime antibacterial activity
same,Minimum inhibitory concentration,[6],1 µg/mL
same,Minimum inhibitory concentration,[7]; [10],≤0.03125 µg/mL
same,Minimum inhibitory concentration,[7]; [11],0.25 µg/mL
same,Minimum inhibitory concentration,[8]; [10],8 µg/mL
same,Minimum inhibitory concentration,[8]; [11],16 µg/mL
